Measured values reported in ChEMBL document CHEMBL1141195, “Carbonic anhydrase inhibitors. The mitochondrial isozyme VB as a new target for sulfonamide and sulfamate inhibitors” (J Med Chem, 2005).

Columns and labels:
[1] = target: Carbonic anhydrase 5B, mitochondrial (Homo sapiens, UniProt Q9Y2D0)
[2] = target: Carbonic anhydrase 5A, mitochondrial (Homo sapiens, UniProt P35218)
Carbonic anhydrase 5A, mitochondrial, sequence (P35218 whole entry): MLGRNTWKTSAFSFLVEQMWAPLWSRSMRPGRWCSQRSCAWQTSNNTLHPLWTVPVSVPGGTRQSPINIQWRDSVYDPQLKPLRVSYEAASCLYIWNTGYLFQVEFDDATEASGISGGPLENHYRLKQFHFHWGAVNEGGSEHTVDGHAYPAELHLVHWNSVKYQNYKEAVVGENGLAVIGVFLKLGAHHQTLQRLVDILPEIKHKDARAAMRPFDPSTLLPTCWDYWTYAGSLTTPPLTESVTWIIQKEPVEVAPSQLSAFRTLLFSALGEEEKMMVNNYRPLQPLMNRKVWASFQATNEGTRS

Carbonic anhydrase 5B, mitochondrial, sequence (Q9Y2D0 whole entry): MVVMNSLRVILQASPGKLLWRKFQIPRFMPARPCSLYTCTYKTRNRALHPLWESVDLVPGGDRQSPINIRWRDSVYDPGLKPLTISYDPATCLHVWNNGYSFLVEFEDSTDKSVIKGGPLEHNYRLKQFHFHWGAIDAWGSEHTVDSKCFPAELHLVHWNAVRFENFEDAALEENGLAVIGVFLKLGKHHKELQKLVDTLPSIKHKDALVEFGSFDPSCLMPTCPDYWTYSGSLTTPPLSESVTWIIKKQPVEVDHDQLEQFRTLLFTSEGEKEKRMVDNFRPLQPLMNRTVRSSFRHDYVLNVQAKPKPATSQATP

Row | Ki [1] [µM] | Ki [2] [µM] | SMILES
1 | 3.4 | 9.6 | NNc1ccccc1S(N)(=O)=O
2 | 2.15 | 2.3 | Nc1nnc(S(N)(=O)=O)s1
3 | 0.024 | 0.176 | Nc1ccc(S(=O)(=O)NCc2ccc(S(N)(=O)=O)cc2)cc1
4 | 6.21 |  | Nc1cc(Cl)c(S(N)(=O)=O)cc1S(N)(=O)=O
5 | 3.3 | 9.4 | Nc1ccc(S(N)(=O)=O)cc1I
6 | 0.03 | 0.034 | Nc1ccc(S(=O)(=O)Nc2nnc(S(N)(=O)=O)s2)cc1
7 | 0.03 | 0.043 | NS(=O)(=O)c1nnc(-c2ccccc2Cl)s1
8 | 10.2 | 17 | Nc1nccc(Nc2ccc(S(N)(=O)=O)cc2)n1
9 | 0.041 | 0.054 | NS(=O)(=O)c1nc2ccc(O)cc2s1
10 | 9.56 | 15.3 | Nc1ccccc1S(N)(=O)=O
11 | 3.54 | 7.6 | Nc1ccc(S(N)(=O)=O)cc1Br
12 | 2.08 | 2.16 | Cn1nc(S(N)(=O)=O)sc1=N
13 | 7 | 8.7 | NS(=O)(=O)c1ccc(CCO)cc1
14 | 4.22 | 9.3 | Nc1ccc(S(N)(=O)=O)cc1F
15 | 7.45 | 9.3 | NS(=O)(=O)c1ccc(CO)cc1
16 | 4.3 | 7.4 | Nc1ccc(S(N)(=O)=O)cc1Cl
17 | 0.042 | 0.121 | Nc1ccc(S(=O)(=O)NCCc2ccc(S(N)(=O)=O)cc2)cc1
18 | 3.5 | 7.7 | NNc1ccc(S(N)(=O)=O)cc1
19 | 0.023 | 0.079 | NS(=O)(=O)c1ccc(S(=O)(=O)Nc2cccc3c(Cl)c[nH]c23)cc1
20 | 6.56 |  | Nc1cc(C(F)(F)F)c(S(N)(=O)=O)cc1S(N)(=O)=O [2,4-DISULFAMYLTRIFLUOROMETHYLANILINE]
21 | 0.03 | 0.05 | CCN[C@H]1CN(CCCOC)S(=O)(=O)c2sc(S(N)(=O)=O)cc21 [BRINZOLAMIDE]
22 | 1.56 | 2.65 | NS(=O)(=O)c1ccc(C(=O)O)cc1 [CARZENIDE]
23 | 12.3 | 27.6 | NCc1ccc(S(N)(=O)=O)cc1 [MAFENIDE]
24 | 2.43 | 4.7 | Cc1ccc(S(N)(=O)=O)cc1 [P-TOLUENESULFONAMIDE]
25 |  | 32 | Nc1ccc(S(N)(=O)=O)cc1 [SULFANILAMIDE]
26 | 0.03 | 0.063 | CC1(C)O[C@@H]2[C@@H](CO[C@@]3(COS(N)(=O)=O)OC(C)(C)O[C@@H]23)O1 [TOPIRAMATE]

Row | SMILES | Ki [1] [µM] | Ki [2] [µM]
27 | NCCc1ccc(S(N)(=O)=O)cc1 | 8.95 | 42.4
